The subject of one test is TNFα. In words: Cot Monocyte TNFα Cell Based Assay.
A further test has as its target Human Cot (Homo sapiens (Human), UniProt P41279). In words: High Throughput Cot Biochemical Assay.
Where [1] appears, read: Homo sapiens, Monocyte, read-out: EC50 TNF, LPS-stimulated human monocytes, TNFα.
Where [2] appears, read: IC50 HTRF, Cot HTRF (TR-FRET) biochemical assay.
The mark [3] stands for this setting: Homo sapiens, Monocyte, read-out: EC50 TNF, LPS-stimulated human monocytes, TNFα TR-FRET.
Setting [4] is: IC50 HTRF, Cot HTRF (TR-FRET KinEASE) biochemical assay, 400 μM ATP.

Where two headings read alike, the source gives them in different places. Some results are limits rather than exact numbers.

Human Cot, sequence (P41279 30-397): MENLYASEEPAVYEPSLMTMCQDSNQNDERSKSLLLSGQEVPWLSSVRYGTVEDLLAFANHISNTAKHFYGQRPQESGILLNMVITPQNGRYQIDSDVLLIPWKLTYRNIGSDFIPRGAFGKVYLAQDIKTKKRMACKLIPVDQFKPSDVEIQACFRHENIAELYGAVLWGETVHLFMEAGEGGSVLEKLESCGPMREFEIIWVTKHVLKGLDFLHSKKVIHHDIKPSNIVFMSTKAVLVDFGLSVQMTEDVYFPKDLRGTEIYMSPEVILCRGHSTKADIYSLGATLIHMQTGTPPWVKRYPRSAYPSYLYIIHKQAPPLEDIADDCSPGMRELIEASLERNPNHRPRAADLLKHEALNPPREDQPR
Protocol for Human Cot: Human Cot enzyme activity was measured using KinEASE (Cisbio), a time-resolved fluorescence resonance energy transfer (TR-FRET) immunoassay. In this assay, Cot-catalyzes the phosporylation of a XL665-labeled peptide substrate. Europium conjugated phospho-tyrosine specific antibody binds the resulting phosphorylated peptide. Formation of phosphorylated peptide is quantified by TR-FRET with Europium as the donor and XL665 the acceptor in a 2-step endpoint assay. […] In brief, test compounds serially diluted in DMSO were delivered into Proxy white, low volume, 384 well plates using the Echo 550 acoustic liquid dispenser (Labcyte®). Cot enzyme and substrates were dispensed into assay plates using a Multi-Flo (Bio-Tek Instruments). The standard 5 μL reaction mixture contained 400 μM ATP, 1 μM STK3 peptide, 5 nM of Cot in reaction buffer (10 mM MOPS, pH 7.0, 0.02% NaN3, 0.5 mg/mL BSA, 10 mM MgOAc, 1 mM DTT, 0.025% NP-40, 1.5% glycerol) and 0.1% DMSO.

For the molecule `N#Cc1cnc2c(Cl)cc(N[C@H](c3c[nH]nn3)c3cccc4c3CNC4)cc2c1Nc1ccc(F)c(Cl)c1` [Example 56, (S)-8-chloro-4-((3-chloro-4-fluorophenyl)amino)-6-((isoindolin-4-yl(1H-1,2,3-triazol-4-yl)methyl)amino)quinoline-3-carbonitrile], the half-maximal effective concentration (EC50) in the test with TNFα (setting [1]) is 2.52 µM. The IC50 at Human Cot (setting [2]) amounted to 0.006 µM.

Regarding `Cc1nc(F)ccc1[C@H](Nc1cc(C#N)c2ncc(C#N)c(NCC(C)(C)C(F)(F)F)c2c1)c1cn(C2(C(F)(F)F)CC2)nn1` [Example 843, (S)-6-(((6-fluoro-2-methylpyridin-3-yl)(1-(1-(trifluoromethyl)cyclopropyl)-1H-1,2,3-triazol-4-yl)methyl)amino)-4-((3,3,3-trifluoro-2,2-dimethylpropyl)amino)-quinoline-3,8-dicarbonitrile], the EC50 in the test on TNFα (setting [3]) is 0.104 µM. For the same molecule, inhibition against Human Cot (setting [4]) was half-maximal at 0.004 µM (IC50).

With `CC(C)(C)CNc1c(C#N)cnc2c(C#N)cc(N[C@H](c3cn(C4(C(F)(F)F)CC4)nn3)c3cccc4ncccc34)cc12` [Example 469, (S)-4-(neopentylamino)-6-((quinolin-5-yl(1-(1-(trifluoromethyl)-cyclopropyl)-1H-1,2,3-triazol-4-yl)methyl)amino)quinoline-3,8-dicarbonitrile], the EC50 in the test on TNFα (setting [1]) is 0.069 µM. Further, at Human Cot (setting [2]), the 50% inhibitory concentration (IC50) worked out at 0.004 µM.

In the case of `Cn1ccc2c([C@H](Nc3cc(C#N)c4ncc(C#N)c(NCC(C)(C)C)c4c3)c3cn(C4(C)CC4)nn3)cccc2c1=O` [Example 879, (S)-6-(((2-methyl-1-oxo-1,2-dihydroisoquinolin-5-yl)(1-(1-methylcyclopropyl)-1H-1,2,3-triazol-4-yl)methyl)amino)-4-(neopentylamino)quinoline-3,8-dicarbonitrile], the EC50 in the test on TNFα (setting [3]) stood at 0.013 µM. This molecule also displayed an IC50 at Human Cot (setting [4]) of 0.001 µM.

In the case of `Cc1nc(F)ccc1[C@H](Nc1cc(Cl)c2ncc(C#N)c(NCC(C)(C)C)c2c1)c1cn(C2(C(C)C)CC2)nn1` [Example 757, (S)-8-chloro-6-(((6-fluoro-2-methylpyridin-3-yl)(1-(1-isopropylcyclopropyl)-1H-1,2,3-triazol-4-yl)methyl)amino)-4-(neopentylamino)quinoline-3-carbonitrile], the EC50 in the test on TNFα (setting [1]) amounted to 0.06 µM. Further, inhibition at Human Cot (setting [2]) was half-maximal at 0.005 µM (IC50).

As for `[2H][C@](Nc1cc(Cl)c2ncc(C#N)c(Nc3cnc(F)c(Cl)c3)c2c1)(c1ccc(F)nc1)c1cn(C2CC2)nn1` [Example 139, (S)-8-chloro-4-((5-chloro-6-fluoropyridin-3-yl)amino)-6-(((1-cyclopropyl-1H-1,2,3-triazol-4-yl)(6-fluoropyridin-3-yl)methyl-d)amino)quinoline-3-carbonitrile], the EC50 in the test with TNFα (setting [1]) was determined as 0.092 µM. The molecule also showed an IC50 against Human Cot (setting [2]) of 0.002 µM.

For `CC(C)(C)CNc1c(C#N)cnc2c(Cl)cc(N[C@H](c3cn(C4(CF)CC4)nn3)c3cccc4ccncc34)cc12` [Example 594, (S)-8-chloro-6-(((1-(1-(fluoromethyl)cyclopropyl)-1H-1,2,3-triazol-4-yl)(isoquinolin-8-yl)methyl)amino)-4-(neopentylamino)quinoline-3-carbonitrile], in the test on TNFα (setting [1]), the EC50 is 0.033 µM. This molecule displayed an IC50 against Human Cot (setting [2]) of 0.002 µM.

In the case of `CCC1(n2cc([C@@H](Nc3cc(Cl)c4ncc(C#N)c(NCC(C)(C)C)c4c3)c3cccc4c(=O)n(C)ccc34)nn2)CC1` [Example 756, (S)-8-chloro-6-(((1-(1-ethylcyclopropyl)-1H-1,2,3-triazol-4-yl)(2-methyl-1-oxo-1,2-dihydroisoquinolin-5-yl)methyl)amino)-4-(neopentylamino)quinoline-3-carbonitrile], the EC50 with TNFα (setting [1]) turned out to be 0.026 µM. This molecule also yielded an IC50 against Human Cot (setting [2]) of 0.003 µM.

In the case of `CC(C)(C)CNc1c(C#N)cnc2c(Cl)cc(N[C@H](c3cn(C4CC4)nn3)c3ccc(F)nc3Cl)cc12` [Example 436, (S)-8-chloro-6-(((2-chloro-6-fluoro-pyridin-3-yl)(1-cyclopropyl-1H-1,2,3-triazol-4-yl)methyl)amino)-4-(neo-pentylamino)quinoline-3-carbonitrile], in the test with TNFα (setting [1]), the half-maximal effective concentration (EC50) was determined as 0.289 µM. The same molecule returned an IC50 on Human Cot (setting [2]) of 0.005 µM.

Take `Cc1nc(F)ccc1[C@H](Nc1cc(C#N)c2ncc(C#N)c(NCC34CC(C3)C4)c2c1)c1cn(C2(C(F)(F)F)CC2)nn1` [Example 848, (S)-4-((bicyclo[1.1.1]pentan-1-ylmethyl)amino)-6-(((6-fluoro-2-methylpyridin-3-yl)(1-(1-(trifluoromethyl)cyclopropyl)-1H-1,2,3-triazol-4-yl)methyl)amino)quinoline-3,8-dicarbonitrile]: the EC50 in the test with TNFα (setting [3]) was determined as 0.247 µM. Moreover, the IC50 against Human Cot (setting [4]) was 0.031 µM.

`[2H][C@](Nc1cc(Cl)c2ncc(C#N)c(NC3CCOCC3(C)C)c2c1)(c1ccc(F)nc1)c1cn(C2CC2)nn1` (stereo partly drawn) [Example 92, 8-chloro-6-(((S)-(1-cyclopropyl-1H-1,2,3-triazol-4-yl)(6-fluoropyridin-3-yl)methyl-d)amino)-4-((3,3-dimethyltetrahydro-2H-pyran-4-yl)amino)quinoline-3-carbonitrile]: the EC50 in the test on TNFα (setting [1]) came out at 0.065 µM. The midpoint of inhibition against Human Cot (setting [2]), the IC50, lay at 0.006 µM.

Consider `Cc1nc(F)ccc1[C@H](Nc1cc(Cl)c2ncc(C#N)c(N[C@H]3[C@@H]4COC[C@@H]43)c2c1)c1cn(C2(C(F)(F)F)CC2)nn1` [Example 608, 4-(((lR,5S,6r)-3-oxabicyclo[3.1.0]hexan-6-yl)amino)-8-chloro-6-(((S)-(6-fluoro-2-methylpyridin-3-yl)(1-(1-(trifluoromethyl)cyclo-propyl)-1H-1,2,3-triazol-4-yl)methyl)amino)-quinoline-3-carbonitrile], for which the EC50 with TNFα (read-out: EC50 TNF, LPS-stimulated human monocytes, TNFα) is 0.314 µM. The IC50 at Human Cot (read-out: IC50 HTRF, Cot HTRF (TR-FRET) biochemical assay) worked out at 0.042 µM.

Consider `Cc1nc(Cl)ccc1[C@H](Nc1cc(Cl)c2ncc(C#N)c(Nc3ccc(F)c(Cl)c3)c2c1)c1cn(C(C)C)nn1` [Example 294, (S)-8-chloro-6-(((6-chloro-2-methylpyridin-3-yl)(1-isopropyl-1H-1,2,3-triazol-4-yl)methyl)amino)-4-((3-chloro-4-fluorophenyl)amino)quinoline-3-carbonitrile], for which the EC50 in the test with TNFα (setting [1]) was found to be 0.166 µM. Further, the IC50 against Human Cot (setting [2]) was 0.009 µM.

With `CC[C@@H](Nc1c(C#N)cnc2c(C#N)cc(N[C@H](c3cn(C4(C(F)(F)F)CC4)nn3)c3cccc4ncsc34)cc12)c1ccccc1` [Example 412, 6-(((S)-benzo[d]thiazol-7-yl(1-(1-(trifluoromethyl)-cyclopropyl)-1H-1,2,3-triazol-4-yl)methyl)amino)-4-(((R)-1-phenylpropyl)amino)quinoline-3,8-dicarbonitrile], the 50% effective concentration (EC50) in the test with TNFα (setting [1]) amounted to 0.157 µM. In addition, the IC50 on Human Cot (setting [2]) is 0.007 µM.

For `Cc1nc(F)ccc1[C@H](Nc1cc(Cl)c2ncc(C#N)c(NCC(C)(C)C)c2c1)c1cn(C2(C(F)(F)F)CC2)nn1` [Example 432, (S)-8-chloro-6-(((6-fluoro-2-methyl-pyridin-3-yl)(1-(1-(trifluoromethyl)-cyclopropyl)-1H-1,2,3-triazol-4-yl)methyl)amino)-4-(neopentylamino)-quinoline-3-carbonitrile], the EC50 with TNFα (setting [1]) was determined as 0.089 µM. Besides, inhibition on Human Cot (setting [2]) was half-maximal at 0.006 µM (IC50).

Turning to `COc1nccc2c([C@H](Nc3cc(Cl)c4ncc(C#N)c(NCC(C)(C)C)c4c3)c3cn(C45CC(C4)C5)nn3)cccc12` [Example 911, (S)-6-(((1-(bicyclo[1.1.1]pentan-1-yl)-1H-1,2,3-triazol-4-yl)(1-methoxylsoquinolin-5-yl)methyl)amino)-8-chloro-4-(neopentylamino)quinoline-3-carbonitrile], in the test on TNFα (read-out: EC50 TNF, LPS-stimulated human monocytes, TNFα TR-FRET), the EC50 was determined as 0.085 µM. Further, the IC50 at Human Cot (read-out: IC50 HTRF, Cot HTRF (TR-FRET KinEASE) biochemical assay, 400 μM ATP) stood at 0.007 µM.

Regarding `Cn1ncc2c([C@H](Nc3cc(C#N)c4ncc(C#N)c(NCC(C)(C)C)c4c3)c3cn(C4CC4)nn3)cccc21` [Example 609, (S)-6-(((1-cyclopropyl-1H-1,2,3-triazol-4-yl)(1-methyl-1H-indazol-4-yl)methyl)amino)-4-(neopentylamino)quinoline-3,8-dicarbonitrile], the EC50 in the test on TNFα (setting [1]) came to 0.046 µM. Besides, the IC50 against Human Cot (setting [2]) amounted to 0.002 µM.

With `CC(C)(C)CNc1c(C#N)cnc2c(C#N)cc(N[C@H](c3cn(C45CC(C4)C5)nn3)c3cccc4c(=O)[nH]ccc34)cc12` [Example 888, (S)-6-(((1-(bicyclo[1.1.1]pentan-1-yl)-1H-1,2,3-triazol-4-yl)(1-oxo-1,2-dihydroisoquinolin-5-yl)methyl)amino)-4-(neopentylamino)quinoline-3,8-dicarbonitrile], in the test on TNFα (setting [3]), the EC50 was found to be 0.165 µM. The same molecule had a half-maximal inhibitory concentration (IC50) at Human Cot (setting [4]) of 0.002 µM.

Take `N#Cc1cnc2c(Cl)cc(N[C@@H](c3cccnc3)c3c[nH]nn3)cc2c1N[C@H](CCO)c1ccccc1` [Example 179, 8-chloro-4-(((R)-3-hydroxy-1-phenylpropyl)amino)-6-(((S)-pyridin-3-yl(1H-1,2,3-triazol-4-yl)methyl)amino)quinoline-3-carbonitrile]: the EC50 in the test on TNFα (setting [1]) was > 10 µM. On Human Cot (setting [2]), inhibition was half-maximal at 0.265 µM (IC50).

Take `Cc1nc(F)ccc1[C@H](Nc1cc(C#N)c2ncc(C#N)c(NCC3(C(F)F)CC3)c2c1)c1cn(C2(C(F)(F)F)CC2)nn1` [Example 638, (S)-4-(((1-(difluoromethyl)-cyclopropyl)methyl)amino)-6-(((6-fluoro-2-methylpyridin-3-yl)(1-(1-(trifluoromethyl)cyclopropyl)-1H-1,2,3-triazol-4-yl)methyl)amino)quinoline-3,8-dicarbonitrile]: the EC50 in the test on TNFα (setting [1]) was determined as 0.858 µM. Moreover, the midpoint of inhibition against Human Cot (setting [2]), the IC50, lay at 0.058 µM.

For the molecule `[2H][C@](Nc1cc(Cl)c2ncc(C#N)c(Nc3ccc(OC)c(Cl)c3)c2c1)(c1ccc(F)nc1)c1cn(C2CC2)nn1` [Example 96, (S)-8-chloro-4-((3-chloro-4-methoxyphenyl)amino)-6-(((1-cyclopropyl-1H-1,2,3-triazol-4-yl)(6-fluoropyridin-3-yl)methyl-d)amino)quinoline-3-carbonitrile], in the test with TNFα (setting [1]), the EC50 turned out to be 0.173 µM. In addition, half-maximal inhibition against Human Cot (setting [2]) (IC50) was put at 0.011 µM.

Usually EC50 stands for the concentration needed to bring the measured effect to its halfway point. The IC50 is the concentration that inhibits the measured activity by half.

The values are drawn from US11066414B2, “Cot modulators and methods of use thereof” (Gilead Sciences, Inc., priority 2015, dated 2021).
